Data taken from PMC11012124, “Synthesis of Novel Triazine-Based Chalcones and 8,9-dihydro-7H-pyrimido[4,5-b][1,4]diazepines as Potential Leads in the Search of Anticancer, Antibacterial and Antifungal Agents” (International Journal of Molecular Sciences, 2024).

What was measured:
60 cancer cell lines = assay: NCI-60 one-dose screen (10 μM); assay type: cell-based; conditions: Homo sapiens; one dose of 10 μM, mean over 60 cancer cell lines; read-out: Mean Growth Percent (MGP)
Source text: Additionally, the mean of the growth percentages (MGP) of each compound against all the 60 cancer cell lines is also reported, which is used as one of the selection criteria to continue with tests at five concentration doses.

HL-60(TB) = assay: cells; conditions: Homo sapiens, HL-60, 48 h; for CC50: read-out: LC50
MOLT-4 = assay: cells; conditions: Homo sapiens, MOLT-4, 48 h; for CC50: read-out: LC50
RPMI-8226 = assay: cells; conditions: Homo sapiens, RPMI-8226, 48 h; for CC50: read-out: LC50
A549/ATCC = assay: cells; conditions: Homo sapiens, A549, 48 h; for CC50: read-out: LC50
HOP-92 = assay: cells; conditions: Homo sapiens, HOP-92, 48 h; for CC50: read-out: LC50
NCI-H226 = assay: cells; conditions: Homo sapiens, NCI-H226, 48 h; for CC50: read-out: LC50
NCI-H460 = assay: cells; conditions: Homo sapiens, NCI-H460, 48 h; for CC50: read-out: LC50
NCI-H522 = assay: cells; conditions: Homo sapiens, NCI-H522, 48 h
COLO 205 = assay: cells; conditions: Homo sapiens, COLO 205, 48 h; for CC50: read-out: LC50
HCT-116 = assay: cells; conditions: Homo sapiens, HCT-116, 48 h
HCT-15 = assay: cells; conditions: Homo sapiens, HCT-15, 48 h; for CC50: read-out: LC50
HT29 = assay: cells; conditions: Homo sapiens, HT-29, 48 h
KM12 = assay: cells; conditions: Homo sapiens, KM12, 48 h
SF-295 = assay: cells; conditions: Homo sapiens, SF-295, 48 h; for CC50: read-out: LC50
SF-539 = assay: cells; conditions: Homo sapiens, SF-539, 48 h
SNB-75 = assay: cells; conditions: Homo sapiens, SNB-75, 48 h; for CC50: read-out: LC50
U251 = assay: cells; conditions: Homo sapiens, U-251, 48 h; for GI50: U251, 48 h
LOX IMVI = assay: cells; conditions: Homo sapiens, 48 h
M14 = assay: cells; conditions: Homo sapiens, M14, 48 h; for CC50: read-out: LC50
SK-MEL-2 = assay: cells; conditions: Homo sapiens, SK-MEL-2, 48 h; for CC50: read-out: LC50
SK-MEL-5 = assay: cells; conditions: Homo sapiens, SK-MEL-5, 48 h
UACC-257 = assay: cells; conditions: Homo sapiens, UACC-257, 48 h; for CC50: read-out: LC50
OVCAR-4 = assay: cells; conditions: Homo sapiens, OVCAR-4, 48 h; for CC50: read-out: LC50
OVCAR-5 = assay: cells; conditions: Homo sapiens, OVCAR-5, 48 h; for CC50: read-out: LC50
SK-OV-3 = assay: cells; conditions: Homo sapiens, SK-OV-3, 48 h; for CC50: read-out: LC50
786-0 = assay: cells; conditions: Homo sapiens, 786-0, 48 h; for CC50: read-out: LC50
A498 = assay: cells; conditions: Homo sapiens, A498, 48 h; for CC50: read-out: LC50
SN12C = assay: cells; conditions: Homo sapiens, 48 h; for CC50: read-out: LC50
TK-10 = assay: cells; conditions: Homo sapiens, TK-10, 48 h; for CC50: read-out: LC50
UO-31 = assay: cells; conditions: Homo sapiens, UO-31, 48 h
DU-145 = assay: cells; conditions: Homo sapiens, DU-145, 48 h; for CC50: read-out: LC50
MCF7 = assay: cells; conditions: Homo sapiens, MCF7, 48 h
MDA-MB-231/ATCC = assay: cells; conditions: Homo sapiens, MDA-MB-231, 48 h
T-47D = assay: cells; conditions: Homo sapiens, T47D, 48 h; for CC50: read-out: LC50
MDA-MB-468 = assay: cells; conditions: Homo sapiens, MDA-MB-468, 48 h

Nc1nc(N)c2c(n1)NC(c1ccc(C(F)(F)F)cc1)CC(c1ccc(Nc3nc(NCCO)nc(Nc4ccc(Cl)cc4)n3)cc1)=N2 (stereo not drawn) [33g]
activity at 10 µM (60 cancer cell lines): -44.8% | GI50 (HL-60(TB)): 1.28 µM | CC50 (HL-60(TB)): > 100 µM | GI50 (MOLT-4): 0.888 µM | CC50 (MOLT-4): > 100 µM | GI50 (RPMI-8226): 1.51 µM | CC50 (RPMI-8226): > 100 µM | GI50 (A549/ATCC): 1.73 µM | CC50 (A549/ATCC): 7.08 µM | GI50 (HOP-92): 1.48 µM | CC50 (HOP-92): 7.94 µM | GI50 (NCI-H226): 1.84 µM | CC50 (NCI-H226): 8.31 µM | GI50 (NCI-H460): 1.96 µM | CC50 (NCI-H460): 8.23 µM | GI50 (NCI-H522): 1.34 µM | CC50 (NCI-H522; read-out: LC50): 5.54 µM | GI50 (COLO 205): 1.33 µM | CC50 (COLO 205): 5.25 µM | GI50 (HCT-116): 1.05 µM | CC50 (HCT-116; read-out: LC50): 5.54 µM | GI50 (HCT-15): 1.15 µM | CC50 (HCT-15): 5.83 µM | GI50 (HT29): 1.36 µM | CC50 (HT29; read-out: LC50): 6.54 µM | GI50 (KM12): 1.37 µM | CC50 (KM12; read-out: LC50): 6.05 µM | GI50 (SF-295): 1.79 µM | CC50 (SF-295): 6.14 µM | GI50 (SF-539): 1.56 µM | CC50 (SF-539; read-out: LC50, SF-539, 48 h): 5.68 µM | GI50 (SNB-75): 1.7 µM | CC50 (SNB-75): 9.06 µM | GI50 (U251): 1.24 µM | CC50 (U251; read-out: LC50): 5.16 µM | GI50 (LOX IMVI): 1.77 µM | GI50 (M14): 1.64 µM | CC50 (M14): 5.72 µM | GI50 (SK-MEL-2): 1.67 µM | CC50 (SK-MEL-2): 5.64 µM | GI50 (SK-MEL-5): 1.55 µM | CC50 (SK-MEL-5; read-out: LC50): 5.37 µM | GI50 (UACC-257): 1.75 µM | CC50 (UACC-257): 5.82 µM | GI50 (OVCAR-4): 2.23 µM | CC50 (OVCAR-4): > 100 µM | GI50 (OVCAR-5): 1.6 µM | CC50 (OVCAR-5): 5.64 µM | GI50 (SK-OV-3): 1.83 µM | CC50 (SK-OV-3): 6.52 µM | GI50 (786-0): 1.39 µM | CC50 (786-0): 6.09 µM | GI50 (A498): 1.56 µM | CC50 (A498): 5.4 µM | GI50 (SN12C): 1.76 µM | CC50 (SN12C): 6.35 µM | GI50 (TK-10): 1.78 µM | CC50 (TK-10): 5.63 µM | GI50 (UO-31): 1.43 µM | CC50 (UO-31; read-out: LC50): 5.3 µM | GI50 (DU-145): 1.51 µM | CC50 (DU-145): 5.33 µM | GI50 (MCF7): 1.26 µM | GI50 (MDA-MB-231/ATCC): 1.88 µM | GI50 (T-47D): 1.55 µM | CC50 (T-47D): 8.75 µM | GI50 (MDA-MB-468): 1.58 µM | CC50 (MDA-MB-468; read-out: LC50): 6.53 µM

COc1cc(/C=C/C(=O)c2ccc(C)cc2)ccc1Oc1nc(NCCO)nc(N2CCOCC2)n1 [20b]
activity at 10 µM (60 cancer cell lines): 48.9% | GI50 (HL-60(TB)): 2.07 µM | CC50 (HL-60(TB)): > 100 µM | GI50 (MOLT-4): 2.09 µM | CC50 (MOLT-4): > 100 µM | GI50 (RPMI-8226): 1.72 µM | CC50 (RPMI-8226): > 100 µM | GI50 (A549/ATCC): 9.47 µM | CC50 (A549/ATCC): > 100 µM | GI50 (HOP-92): 8.4 µM | CC50 (HOP-92): > 100 µM | GI50 (NCI-H226): 6.28 µM | CC50 (NCI-H226): > 100 µM | GI50 (NCI-H460): 2.2 µM | CC50 (NCI-H460): > 100 µM | GI50 (NCI-H522): 1.56 µM | GI50 (COLO 205): 2.64 µM | CC50 (COLO 205): > 100 µM | GI50 (HCT-116): 1.73 µM | GI50 (HCT-15): 1.78 µM | CC50 (HCT-15): > 100 µM | GI50 (HT29): 1.85 µM | GI50 (KM12): 1.85 µM | CC50 (SF-295): > 100 µM | GI50 (SF-539): 1.88 µM | GI50 (SNB-75): > 100 µM | CC50 (SNB-75): > 100 µM | GI50 (U251): 1.62 µM | GI50 (LOX IMVI): 0.43 µM | CC50 (LOX IMVI; read-out: LC50, LOX IMVI, 48 h): 4.09 µM | GI50 (M14): 2.03 µM | CC50 (M14): > 100 µM | GI50 (SK-MEL-2): 8.17 µM | CC50 (SK-MEL-2): > 100 µM | GI50 (SK-MEL-5): 2 µM | GI50 (UACC-257): 3.98 µM | CC50 (UACC-257): > 100 µM | GI50 (OVCAR-4): 3.92 µM | CC50 (OVCAR-4): > 100 µM | GI50 (OVCAR-5): 3.22 µM | CC50 (OVCAR-5): > 100 µM | GI50 (SK-OV-3): 23 µM | CC50 (SK-OV-3): > 100 µM | GI50 (786-0): 2.18 µM | CC50 (786-0): > 100 µM | GI50 (A498): > 100 µM | CC50 (A498): > 100 µM | GI50 (SN12C): 2.35 µM | CC50 (SN12C): > 100 µM | GI50 (TK-10): > 100 µM | CC50 (TK-10): > 100 µM | GI50 (UO-31): 1.49 µM | GI50 (DU-145): 3.79 µM | CC50 (DU-145): > 100 µM | GI50 (MCF7): 1.5 µM | CC50 (MCF7; read-out: LC50): > 100 µM | GI50 (MDA-MB-231/ATCC): 2.98 µM | CC50 (MDA-MB-231/ATCC; read-out: LC50): > 100 µM | GI50 (T-47D): 2.98 µM | CC50 (T-47D): > 100 µM | GI50 (MDA-MB-468): 1.98 µM
